# In patent publication US10793563B2, “GCN2 inhibitors and uses thereof” (Merck Patent GmbH, priority 2018, dated 2020):
# pIC50: −log10 of the molar value.
# Biological target: GCN2 kinase (Homo sapiens (Human), UniProt Q9P2K8)
# Test: GCN2 Enzyme Inhibition Assay (Transcreener ADP2 fluorescence polarization)
# Format: biochemical
# Settings: 280 μM ATP, 200 μM (RS)7 peptide, 4 nM GCN2, 25° C.
# Procedure: Compounds were screened for their ability to inhibit GCN2 kinase activity using a Transcreener® ADP^2 fluorescence polarization assay that detects ADP levels (BellBrook Labs, WI). Assays were carried out in a buffer consisting of 25 mM Tris-HCl (pH 7.5), 50 mM NaCl, 10 mM MgCl2 and 1 mM DTT. […] Assays were carried out at 25° C. in the presence of a (typical) final concentration of 4 nM GCN2 kinase. An assay buffer containing GCN2 kinase and (RS)7 was prepared. […] The plate was incubated for 10 minutes at 25° C. prior to the addition of 4.7 μL of ATP stock buffer to initiate the enzyme reaction. The reaction was allowed to proceed for 1 hour at 25° C., prior to the addition of 10 μL detection buffer (consisting of appropriate concentrations of ADP^2 antibody and ADP Alexa633 tracer in 1× stop and detect buffer as supplied by BellBrook Labs). […] Percentage inhibition of enzyme activity was then calculated at each compound dose. IC50 and Ki(app) (using known assay and kinetic parameters) values were calculated from percentage inhibition data using a non-linear, tight-binding algorithm. All data analysis was undertaken using the Screener® software package (Genedata, Switzerland).
# GCN2 kinase, sequence (Q9P2K8 whole entry): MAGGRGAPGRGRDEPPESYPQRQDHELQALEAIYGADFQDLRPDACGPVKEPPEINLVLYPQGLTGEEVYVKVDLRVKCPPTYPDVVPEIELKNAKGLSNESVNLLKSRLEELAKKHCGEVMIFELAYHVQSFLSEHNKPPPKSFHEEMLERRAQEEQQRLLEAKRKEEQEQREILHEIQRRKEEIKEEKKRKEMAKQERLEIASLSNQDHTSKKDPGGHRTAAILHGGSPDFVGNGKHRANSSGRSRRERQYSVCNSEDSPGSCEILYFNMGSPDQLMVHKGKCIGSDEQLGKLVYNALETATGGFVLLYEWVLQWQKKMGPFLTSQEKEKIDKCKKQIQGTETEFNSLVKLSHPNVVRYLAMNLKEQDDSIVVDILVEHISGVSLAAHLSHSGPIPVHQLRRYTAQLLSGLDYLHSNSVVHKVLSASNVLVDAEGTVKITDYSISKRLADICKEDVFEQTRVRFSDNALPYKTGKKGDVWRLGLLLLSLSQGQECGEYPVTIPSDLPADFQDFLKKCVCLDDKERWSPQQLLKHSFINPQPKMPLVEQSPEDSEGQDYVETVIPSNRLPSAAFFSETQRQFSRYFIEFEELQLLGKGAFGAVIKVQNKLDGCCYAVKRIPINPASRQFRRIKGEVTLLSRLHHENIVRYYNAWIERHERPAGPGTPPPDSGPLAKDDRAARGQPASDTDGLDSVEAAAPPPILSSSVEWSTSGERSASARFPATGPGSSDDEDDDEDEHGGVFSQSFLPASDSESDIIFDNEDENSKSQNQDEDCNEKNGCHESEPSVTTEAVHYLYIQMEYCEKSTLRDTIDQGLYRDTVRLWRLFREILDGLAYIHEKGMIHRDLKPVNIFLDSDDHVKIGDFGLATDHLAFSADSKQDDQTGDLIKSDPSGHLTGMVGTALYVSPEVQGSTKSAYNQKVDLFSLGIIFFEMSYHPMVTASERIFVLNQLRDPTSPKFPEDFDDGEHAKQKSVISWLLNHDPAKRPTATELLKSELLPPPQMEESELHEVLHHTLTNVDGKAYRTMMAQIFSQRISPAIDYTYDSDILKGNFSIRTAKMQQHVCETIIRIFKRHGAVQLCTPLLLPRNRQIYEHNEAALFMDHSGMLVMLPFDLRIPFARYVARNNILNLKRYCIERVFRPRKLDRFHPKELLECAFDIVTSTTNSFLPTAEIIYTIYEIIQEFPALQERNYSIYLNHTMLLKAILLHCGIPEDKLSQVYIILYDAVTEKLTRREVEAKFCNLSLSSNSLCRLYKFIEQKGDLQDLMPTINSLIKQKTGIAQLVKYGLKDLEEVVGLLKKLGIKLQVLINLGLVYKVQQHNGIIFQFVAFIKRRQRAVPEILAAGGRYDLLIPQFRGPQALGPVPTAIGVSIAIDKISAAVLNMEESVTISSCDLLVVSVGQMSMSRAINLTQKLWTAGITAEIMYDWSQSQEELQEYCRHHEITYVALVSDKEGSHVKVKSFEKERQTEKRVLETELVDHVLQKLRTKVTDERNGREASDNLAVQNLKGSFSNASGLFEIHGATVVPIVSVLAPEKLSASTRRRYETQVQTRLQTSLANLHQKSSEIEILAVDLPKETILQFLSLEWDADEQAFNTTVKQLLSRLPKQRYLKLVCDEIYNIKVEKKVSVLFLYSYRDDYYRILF
row,Structure (SMILES),pIC50
1,"Cc1nn(C)cc1[C@H]1C[C@H](C)CN(c2nccc(-c3cnc4ccc(C(F)(F)F)cn34)n2)C1 [I-139, 3-(2-((3R,5S)-3-(1,3-dimethyl-1H-pyrazol-4-yl)-5-methylpiperidin-1-yl)pyrimidin-4-yl)-6-(trifluoromethyl)imidazo[1,2-a]pyridine]",6.00 to 7.00
2,"Cc1nn(C)cc1[C@@H]1C[C@@H](C)CN(c2nccc(-c3cnc4ccc(C(F)(F)F)cn34)n2)C1 [I-140, 3-(2-((3S,5R)-3-(1,3-dimethyl-1H-pyrazol-4-yl)-5-methylpiperidin-1-yl)pyrimidin-4-yl)-6-(trifluoromethyl)imidazo[1,2-a]pyridine]",6.00 to 7.00
3,"Cc1nn(C)cc1[C@@H]1C[C@H](C)CN(c2nccc(-c3cnc4ccc(C(F)(F)F)cn34)n2)C1 [I-141, 3-(2-((3S,5S)-3-(1,3-dimethyl-1H-pyrazol-4-yl)-5-methylpiperidin-1-yl)pyrimidin-4-yl)-6-(trifluoromethyl)imidazo[1,2-a]pyridine]",6.00 to 7.00
4,"Cc1nn(C)cc1[C@H]1C[C@@H](C)CN(c2nccc(-c3cnc4ccc(C(F)(F)F)cn34)n2)C1 [I-142, 3-(2-((3R,5R)-3-(1,3-dimethyl-1H-pyrazol-4-yl)-5-methylpiperidin-1-yl)pyrimidin-4-yl)-6-(trifluoromethyl)imidazo[1,2-a]pyridine]",6.00 to 7.00
5,"NC(=O)[C@H]1CN(c2ccnc(-c3cnc4ccc(C(F)(F)F)cn34)n2)CCO1 [I-151, (R)-4-(2-(6-(trifluoromethyl)imidazo[1,2-a]pyridin-3-yl)pyrimidin-4-yl)morpholine-2-carboxamide]",6.00 to 7.00
6,"Cc1nn(C)cc1[C@H]1CN(c2nccc(-c3cnc4ccc(C(F)(F)F)cn34)n2)C[C@H](C)O1 [I-156, (2S,6S)-2-(1,3-dimethyl-1H-pyrazol-4-yl)-6-methyl-4-(4-(6-(trifluoromethyl)imidazo[1,2-a]pyridin-3-yl)pyrimidin-2-yl)morpholine]",6.00 to 7.00
7,"Cc1cnc(N2C[C@H](C)C[C@H](N=S(C)(C)=O)C2)nc1-c1cnc2ccc(Cl)cn12 [I-167, (((3 S,5R)-1-(4-(6-chloroimidazo[1,2-a]pyridin-3-yl)-5-methylpyrimidin-2-yl)-5-methylpiperidin-3-yl)imino)dimethyl-λ6-sulfanone]",6.00 to 7.00
8,"Cc1[nH]ncc1C1N[C@H](C)CN(c2nccc(-c3cnc4ccc(C(F)(F)F)cn34)n2)[C@@H]1C (stereo partly drawn) [I-173, 3-(2-((2R,5R)-2,5-dimethyl-3-(5-methyl-1H-pyrazol-4-yl)piperazin-1-yl)pyrimidin-4-yl)-6-(trifluoromethyl)imidazo[1,2-a]pyridine]",6.00 to 7.00
9,"C[C@@H]1CN(c2nccc(-c3cnc4ccc(C(F)(F)F)cn34)n2)C[C@H](c2nn[nH]n2)O1 [I-190, (2R,6R)-2-methyl-6-(2H-tetrazol-5-yl)-4-(4-(6-(trifluoromethyl)imidazo[1,2-a]pyridin-3-yl)pyrimidin-2-yl)morpholine]",6.00 to 7.00
10,"O=C(O)C1CN(c2ccnc(-c3cnc4ccc(C(F)(F)F)cn34)n2)CC(F)(F)C1 (stereo not drawn) [I-205, 5,5-Difluoro-1-[2-(6-trifluoromethyl-imidazo[1,2-a]pyridin-3-yl)-pyrimidin-4-yl]-piperidine-3-carboxylic acid]",7.00 to 8.00
11,"O=C(O)C1CC(F)CN(c2ccnc(-c3cnc4ccc(C(F)(F)F)cn34)n2)C1 (stereo not drawn) [I-206, 5-fluoro-1-[2-(6-trifluoromethyl-imidazo[1,2-a]pyridin-3-yl)-pyrimidin-4-yl]-piperidine-3-carboxylic acid]",7.00 to 8.00
12,"CC(C)(C)OC(=O)N1CCN(c2ccnc(-c3cnc4ccc(C(F)(F)F)cn34)n2)CC1C(N)=O (stereo not drawn) [I-207, tert-butyl 2-carbamoyl-4-(2-(6-(trifluoromethyl)imidazo[1,2-a]pyridin-3-yl)pyrimidin-4-yl)piperazine-1-carboxylate]",6.00 to 7.00
13,"CC(C)(C)OC(=O)C1(O)CCCN(c2ccnc(-c3cnc4ccc(C(F)(F)F)cn34)n2)C1 (stereo not drawn) [I-212, tert-butyl 3-hydroxy-1-(2-(6-(trifluoromethyl)imidazo[1,2-a]pyridin-3-yl)pyrimidin-4-yl)piperidine-3-carboxylate]",6.00 to 7.00
14,"O=C(O)C1(O)CCCN(c2ccnc(-c3cnc4ccc(C(F)(F)F)cn34)n2)C1 (stereo not drawn) [I-214, 3-hydroxy-1-(2-(6-(trifluoromethyl)imidazo[1,2-a]pyridin-3-yl)pyrimidin-4-yl)piperidine-3-carboxylic acid]",6.00 to 7.00
15,"NC(=O)C1CN(c2ccnc(-c3cnc4ccc(C(F)(F)F)cn34)n2)C1 [I-228, 1-(2-(6-(trifluoromethyl)imidazo[1,2-a]pyridin-3-yl)pyrimidin-4-yl)azetidine-3-carboxamide]",6.00 to 7.00
16,"NC(=O)CC1CN(c2ccnc(-c3cnc4ccc(C(F)(F)F)cn34)n2)C1 [I-230, 2-(1-(2-(6-(trifluoromethyl)imidazo[1,2-a]pyridin-3-yl)pyrimidin-4-yl)azetidin-3-yl)acetamide]",7.00 to 8.00
17,"CC1CN(c2ccnc(-c3cnc4ccc(C(F)(F)F)cn34)n2)CC(C)N1 (stereo not drawn) [I-231, 3-(4-(3,5-dimethylpiperazin-1-yl)pyrimidin-2-yl)-6-(trifluoromethyl)imidazo[1,2-a]pyridine]",6.00 to 7.00
18,"CC1CN(c2ccnc(-c3cnc4ccc(C(F)(F)F)cn34)n2)CC(C)N1C1COC1 (stereo not drawn) [I-234, 3-(4-(3,5-dimethyl-4-(oxetan-3-yl)piperazin-1-yl)pyrimidin-2-yl)-6-(trifluoromethyl)imidazo[1,2-a]pyridine]",7.00 to 8.00
19,"N[C@H]1C[C@H](O)CN(c2ccnc(-c3cnc4ccc(C(F)(F)F)cn34)n2)C1 [I-239, (3 S,5S)-5-amino-1-(2-(6-(trifluoromethyl)imidazo[1,2-a]pyridin-3-yl)pyrimidin-4-yl)piperidin-3-ol]",6.00 to 7.00

# The remaining lines, values ahead:
row,pIC50,Structure (SMILES)
1,7.00 to 8.00,"NC(=O)[C@@H]1CCCN(c2nccc(-c3cnc4ccc(C(F)(F)F)cn34)n2)C1 [I-152, (R)-1-(4-(6-(trifluoromethyl)imidazo[1,2-a]pyridin-3-yl)pyrimidin-2-yl)piperidine-3-carboxamide]"
2,7.00 to 8.00,"Cc1nn(C)cc1[C@H]1CN(c2nccc(-c3cnc4ccc(C(F)(F)F)cn34)n2)C[C@@H](C)O1 [I-158, (2S,6R)-2-(1,3-dimethyl-1H-pyrazol-4-yl)-6-methyl-4-(4-(6-(trifluoromethyl)imidazo[1,2-a]pyridin-3-yl)pyrimidin-2-yl)morpholine]"
3,7.00 to 8.00,"NC(=O)CC1CCCN(c2ccnc(-c3cnc4ccc(Cl)cn34)n2)C1 (stereo not drawn) [I-162, 2-(1-(2-(6-chloroimidazo[1,2-a]pyridin-3-yl)pyrimidin-4-yl)piperidin-3-yl)acetamide]"
4,7.00 to 8.00,"NC(=O)C1CN(c2ccnc(-c3cnc4ccc(Cl)cn34)n2)CCO1 (stereo not drawn) [I-163, 4-(2-(6-chloroimidazo[1,2-a]pyridin-3-yl)pyrimidin-4-yl)morpholine-2-carboxamide]"
5,7.00 to 8.00,"NC(=O)[C@@H]1CCCN(c2ccnc(-c3cnc4ccc(Cl)cn34)n2)C1 [I-164, (R)-1-(2-(6-chloroimidazo[1,2-a]pyridin-3-yl)pyrimidin-4-yl)piperidine-3-carboxamide]"
6,7.00 to 8.00,"O=C(O)CC1CCCN(c2ccnc(-c3cnc4ccc(C(F)(F)F)cn34)n2)C1 (stereo not drawn) [I-165, 2-(1-(2-(6-(trifluoromethyl)imidazo[1,2-a]pyridin-3-yl)pyrimidin-4-yl)piperidin-3-yl)acetic acid]"
7,7.00 to 8.00,"NC(=O)CC1CCCN(c2ccnc(-c3cnc4ccc(C(F)(F)F)cn34)n2)C1 (stereo not drawn) [I-166, 2-(1-(2-(6-(trifluoromethyl)imidazo[1,2-a]pyridin-3-yl)pyrimidin-4-yl)piperidin-3-yl)acetamide]"
8,7.00 to 8.00,"Cc1cc(-c2cnc3ccc(Cl)cn23)nc(N2C[C@H](C)C[C@H](N=S(C)(C)=O)C2)n1 [I-168, (((3 S,5R)-1-(4-(6-chloroimidazo[1,2-a]pyridin-3-yl)-6-methylpyrimidin-2-yl)-5-methylpiperidin-3-yl)imino)dimethyl-λ6-sulfanone]"
9,7.00 to 8.00,"Cc1cnc(N2CCC[C@H](C(N)=O)C2)nc1-c1cnc2ccc(Cl)cn12 [I-174, (S)-1-(4-(6-chloroimidazo[1,2-a]pyridin-3-yl)-5-methylpyrimidin-2-yl)piperidine-3-carboxamide]"
10,7.00 to 8.00,"CC(=O)NC1CCCN(c2ccnc(-c3cnc4ccc(C(F)(F)F)cn34)n2)C1 (stereo not drawn) [I-187, N-(1-(2-(6-(trifluoromethyl)imidazo[1,2-a]pyridin-3-yl)pyrimidin-4-yl)piperidin-3-yl)acetamide]"
11,7.00 to 8.00,"CC1(C(N)=O)CCN(c2ccnc(-c3cnc4ccc(C(F)(F)F)cn34)n2)CC1 [I-188, 4-methyl-1-(2-(6-(trifluoromethyl)imidazo[1,2-a]pyridin-3-yl)pyrimidin-4-yl)piperidine-4-carboxamide]"
12,7.00 to 8.00,"C[C@H]1CN(c2nccc(-c3cnc4ccc(C(F)(F)F)cn34)n2)C[C@@H](c2nn[nH]n2)O1 [I-189, (2S,6S)-2-methyl-6-(2H-tetrazol-5-yl)-4-(4-(6-(trifluoromethyl)imidazo[1,2-a]pyridin-3-yl)pyrimidin-2-yl)morpholine]"
13,7.00 to 8.00,"CC1(C(N)=O)CCCN(c2ccnc(-c3cnc4ccc(C(F)(F)F)cn34)n2)C1 (stereo not drawn) [I-192, 3-methyl-1-(2-(6-(trifluoromethyl)imidazo[1,2-a]pyridin-3-yl)pyrimidin-4-yl)piperidine-3-carboxamide]"
14,> 8.00,"NC(=O)C1CC(F)CN(c2ccnc(-c3cnc4ccc(C(F)(F)F)cn34)n2)C1 (stereo not drawn) [I-229, 5-fluoro-1-(2-(6-(trifluoromethyl)imidazo[1,2-a]pyridin-3-yl)pyrimidin-4-yl)piperidine-3-carboxamide]"
